± gives the expanded uncertainty stated by the source. Values belong to the compound of their own block, whether it stands above or below them.
Conditions: Liquid, Ebulliometric method (Recirculating still)

- vapor or sublimation pressure (385.15 K): 101.3 ± 1 kPa
Compound: CCC(C)OC(C)=O (stereo not drawn) [1-methylpropyl ethanoate]

- vapor or sublimation pressure (371.58 K): 100 ± 1 kPa
Compound: CCCCCCC [heptane]

- vapor or sublimation pressure (374.08 K): 101.3 ± 1 kPa
Compound: CC1CCCCC1 [methylcyclohexane]

— the NIST ThermoML archive (doi:10.1021/acs.jced.7b00999)
